Consider five compounds from ChEMBL document CHEMBL2202991, “The effect of the length and flexibility of the side chain of basic amino acids on the binding of antimicrobial peptides to zwitterionic and anionic membrane model systems” (Bioorg Med Chem, 2012).

The source made the active and inactive calls. The calls are words filed in the database; no cut-off is given here. Non-standard residues stand in square brackets, D forms with d. Residues, ends and D or L forms follow the SMILES beside them. ξ: configuration not given here. Pro(3ξ,4ξ-(CH2)4) = O=C(O)[C@H]1NCC2CCCCC21; Tic = O=C(O)[C@@H]1Cc2ccccc2CN1; ξR = N=C(N)NCCCC(N)C(=O)O; Dab = NCC[C@H](N)C(=O)O; Dap = NC[C@H](N)C(=O)O

Assay [1] in a line: Binding affinity to zwitterionic dodecylphosphocholine micelle at 100 uM by circular dichroism analysis. Background: CD spectra are sensitive to the conformation of chiral molecules.
Assay [2] can be described thus: Binding affinity to anionic sodium dodecyl sulfate micelle at 100 uM by circular dichroism analysis.
The test system of assay [3] is Lipid bilayer. Briefly: Binding affinity to 4:1 POPC/POPG large unilamellar vesicles assessed as calcein leakage at 20 uM measured up to 90 mins by fluorimetric analysis.
Assay [4] deals with Lipid bilayer. Briefly: Binding affinity to 4:1 POPC/POPG large unilamellar vesicle at 100 uM by circular dichroism analysis.
Assay [5] concerns Lipid bilayer. Briefly: Binding affinity to 4:1 POPC/POPG small unilamellar vesicle at 100 uM by circular dichroism analysis.
The subject of assay [6] is Lipid bilayer. Briefly: Binding affinity to POPC large unilamellar vesicle assessed as lipid:compound molar ratio for complete interaction at 0.2 mM by isothermal titration calorimetric analysis. In general terms: Isothermal titration calorimetry measures the heat released or taken up as one component is titrated into another.
Assay [7] relates to Lipid bilayer. Briefly: Binding affinity to 4:1 POPC/POPG large unilamellar vesicle assessed as lipid:compound molar ratio for complete interaction at 0.2 mM by isothermal titration calorimetric analysis.
Assay [8] concerns Lipid bilayer. Briefly: Binding affinity to POPC large unilamellar vesicles assessed as calcein leakage at 20 uM measured up to 90 mins by fluorimetric analysis.
The test system of assay [9] is Lipid bilayer. Briefly: Binding affinity to 4:1 POPC/POPG large unilamellar vesicle assessed as lipid:compound molar ratio required for integration into membrane at 200 uM by pseudo titration-based circular dichroism analysis.
The subject of assay [10] is Lipid bilayer. Briefly: Binding affinity to POPC large unilamellar vesicle at 200 uM by circular dichroism analysis.
The subject of assay [11] is Lipid bilayer. Briefly: Binding affinity to POPC large unilamellar vesicle at 0.2 mM by isothermal titration calorimetric analysis.
Assay [12] has as its system Lipid bilayer. Briefly: Binding affinity to POPC large unilamellar vesicle at 200 uM by pseudo titration based circular dichroism analysis.
Assay [13] relates to Lipid bilayer. Briefly: Binding affinity to POPC small unilamellar vesicle at 100 uM by circular dichroism analysis.
For assay [14], the system named is Lipid bilayer. Briefly: Binding affinity to POPC large unilamellar vesicle at 100 uM by circular dichroism analysis.
In assay [15] the test system is Lipid bilayer. Briefly: Binding affinity to POPC large unilamellar vesicles assessed as calcein leakage at 4 to 20 uM measured up to 90 mins by fluorimetric analysis.
Assay [16] relates to Lipid bilayer. Briefly: Binding affinity to 4:1 POPC/POPG large unilamellar vesicles assessed as calcein leakage at 4 to 20 uM measured up to 90 mins by fluorimetric analysis.
The subject of assay [17] is Lipid bilayer. Briefly: Binding affinity to POPC large unilamellar vesicle at 100 uM by pseudo titration based circular dichroism analysis.
The test system of assay [18] is Lipid bilayer. Briefly: Binding affinity to 4:1 POPC/POPG large unilamellar vesicle at 200 uM by pseudo titration-based circular dichroism analysis.
Assay [19] concerns Lipid bilayer. Briefly: Binding affinity to POPC large unilamellar vesicles assessed as calcein leakage at 4 uM measured up to 90 mins by fluorimetric analysis.
The subject of assay [20] is Lipid bilayer. Briefly: Binding affinity to 4:1 POPC/POPG large unilamellar vesicles assessed as calcein leakage at 4 uM measured up to 90 mins by fluorimetric analysis.
Assay [21] deals with Lipid bilayer. Briefly: Binding affinity to 4:1 POPC/POPG large unilamellar vesicle assessed as lipid:compound molar ratio required for integration into membrane at 100 uM by pseudo titration-based circular dichroism analysis.

`CC(=O)NCC(=O)N[C@@H](Cc1ccccc1)C(=O)N1Cc2ccccc2C[C@H]1C(=O)N1CC2CCCCC2[C@H]1C(=O)NCC(=O)N[C@@H](CCCCN)C(=O)N1Cc2ccccc2C[C@H]1C(=O)N1CC2CCCCC2[C@H]1C(=O)NCC(=O)N[C@@H](Cc1ccccc1)C(=O)N1Cc2ccccc2C[C@H]1C(=O)N1CC2CCCCC2[C@H]1C(=O)NCC(=O)N[C@@H](CCCCN)C(=O)N1Cc2ccccc2C[C@H]1C(=O)N[C@@H](CCCCN)C(=O)N[C@@H](CCCCN)C(=O)N[C@@H](CCCCN)C(=O)N[C@@H](CCCCN)C(N)=O` (some centres not stated) (Ac-GF[Tic][Pro(3ξ,4ξ-(CH2)4)]GK[Tic][Pro(3ξ,4ξ-(CH2)4)]GF[Tic][Pro(3ξ,4ξ-(CH2)4)]GK[Tic]KKKK-NH2): the result (in [1]; in assay [2]; in the assay on Lipid bilayer [4]; with Lipid bilayer [5]; with Lipid bilayer [10]; in the assay on Lipid bilayer [12]) was Active. Also, in the assay with Lipid bilayer [13], the outcome was Active. Also, the Activity in the assay on Lipid bilayer [3] was 40%; with Lipid bilayer [6], 120 molar ratio; in the assay on Lipid bilayer [7] it was 30 molar ratio; with Lipid bilayer [8], 25%; in the assay on Lipid bilayer [9], 39 molar ratio. In the assay with Lipid bilayer [11], this compound registered a Kb of 211 M⁻¹.
As for `CC(=O)NCC(=O)N[C@@H](Cc1ccccc1)C(=O)N1Cc2ccccc2C[C@H]1C(=O)N1CC2CCCCC2[C@H]1C(=O)NCC(=O)N[C@@H](CCN)C(=O)N1Cc2ccccc2C[C@H]1C(=O)N1CC2CCCCC2[C@H]1C(=O)NCC(=O)N[C@@H](Cc1ccccc1)C(=O)N1Cc2ccccc2C[C@H]1C(=O)N1CC2CCCCC2[C@H]1C(=O)NCC(=O)N[C@@H](CCN)C(=O)N1Cc2ccccc2C[C@H]1C(=O)N[C@@H](CCN)C(=O)N[C@@H](CCN)C(=O)N[C@@H](CCN)C(=O)N[C@@H](CCN)C(N)=O` (some centres not stated) (Ac-GF[Tic][Pro(3ξ,4ξ-(CH2)4)]G[Dab][Tic][Pro(3ξ,4ξ-(CH2)4)]GF[Tic][Pro(3ξ,4ξ-(CH2)4)]G[Dab][Tic][Dab][Dab][Dab][Dab]-NH2), the result (in the assay with Lipid bilayer [14]; with Lipid bilayer [15]; in assay [1]; in assay [2]; in the assay with Lipid bilayer [4]; with Lipid bilayer [5]) was Active. In addition, the result in the assay on Lipid bilayer [16], in the assay on Lipid bilayer [17] and in the assay on Lipid bilayer [13] was Active. The figures for the Activity with Lipid bilayer [6], in the assay on Lipid bilayer [7] and in the assay with Lipid bilayer [9] were 130 molar ratio, 20 molar ratio and 22 molar ratio, respectively. This compound showed a Kb in the assay on Lipid bilayer [11] of 240 M⁻¹.
Regarding `CC(=O)NCC(=O)N[C@@H](Cc1ccccc1)C(=O)N1Cc2ccccc2C[C@H]1C(=O)N1CC2CCCCC2[C@H]1C(=O)NCC(=O)N[C@@H](CN)C(=O)N1Cc2ccccc2C[C@H]1C(=O)N1CC2CCCCC2[C@H]1C(=O)NCC(=O)N[C@@H](Cc1ccccc1)C(=O)N1Cc2ccccc2C[C@H]1C(=O)N1CC2CCCCC2[C@H]1C(=O)NCC(=O)N[C@@H](CN)C(=O)N1Cc2ccccc2C[C@H]1C(=O)N[C@@H](CN)C(=O)N[C@@H](CN)C(=O)N[C@@H](CN)C(=O)N[C@@H](CN)C(N)=O` (some centres not stated) (Ac-GF[Tic][Pro(3ξ,4ξ-(CH2)4)]G[Dap][Tic][Pro(3ξ,4ξ-(CH2)4)]GF[Tic][Pro(3ξ,4ξ-(CH2)4)]G[Dap][Tic][Dap][Dap][Dap][Dap]-NH2), the result (in [1]; in [2]; in the assay on Lipid bilayer [4]; in the assay with Lipid bilayer [5]; with Lipid bilayer [10]; with Lipid bilayer [18]) was Active. Further, the outcome in the assay with Lipid bilayer [12] and with Lipid bilayer [13] was Active. The Activity in the assay with Lipid bilayer [3] was 100%; with Lipid bilayer [6], 55 molar ratio; in the assay with Lipid bilayer [7] it was 55 molar ratio; in the assay with Lipid bilayer [8] it was 100%. The Kb in the assay with Lipid bilayer [11] was 570 M⁻¹.
Regarding `CC(=O)NCC(=O)N[C@@H](Cc1ccccc1)C(=O)N1Cc2ccccc2C[C@H]1C(=O)N1CC2CCCCC2[C@H]1C(=O)NCC(=O)NC(CCCNC(=N)N)C(=O)N1Cc2ccccc2C[C@H]1C(=O)N1CC2CCCCC2[C@H]1C(=O)NCC(=O)N[C@@H](Cc1ccccc1)C(=O)N1Cc2ccccc2C[C@H]1C(=O)N1CC2CCCCC2[C@H]1C(=O)NCC(=O)N[C@@H](CCCNC(=N)N)C(=O)N1Cc2ccccc2C[C@H]1C(=O)N[C@@H](CCCNC(=N)N)C(=O)N[C@@H](CCCNC(=N)N)C(=O)N[C@@H](CCCNC(=N)N)C(=O)N[C@@H](CCCNC(=N)N)C(N)=O` (some centres not stated) (Ac-GF[Tic][Pro(3ξ,4ξ-(CH2)4)]G[ξR][Tic][Pro(3ξ,4ξ-(CH2)4)]GF[Tic][Pro(3ξ,4ξ-(CH2)4)]GR[Tic]RRRR-NH2), the Activity was 60% with Lipid bilayer [19]; 50% in the assay with Lipid bilayer [20]; 90% with Lipid bilayer [3]; 52 molar ratio with Lipid bilayer [21]; 150 molar ratio in the assay with Lipid bilayer [6]; 30 molar ratio in the assay on Lipid bilayer [7]. In the assay on Lipid bilayer [8], the Activity is 60%. In addition, the result (in the assay with Lipid bilayer [14]; in assay [1]; in [2]; with Lipid bilayer [4]; in the assay with Lipid bilayer [5]; in the assay on Lipid bilayer [17]) was Active. In addition, in the assay on Lipid bilayer [13], the result was Active. Moreover, the Kb in the assay with Lipid bilayer [11] was found to be 479 M⁻¹.
For `CC(=O)NCC(=O)N[C@@H](Cc1ccccc1)C(=O)N1Cc2ccccc2C[C@H]1C(=O)N1CC2CCCCC2[C@@H]1C(=O)NCC(=O)N[C@H](CCCN)C(=O)N1Cc2ccccc2C[C@@H]1C(=O)N1CC2CCCCC2[C@H]1C(=O)NCC(=O)NC(Cc1ccccc1)C(=O)N1Cc2ccccc2C[C@@H]1C(=O)N1CC2CCCCC2[C@@H]1C(=O)NCC(=O)N[C@H](CCCN)C(=O)N1Cc2ccccc2C[C@@H]1C(=O)N[C@H](CCCN)C(=O)N[C@H](CCCN)C(=O)N[C@H](CCCN)C(=O)N[C@H](CCCN)C(N)=O` (single isomer, unassigned), the outcome (with Lipid bilayer [14]; in the assay on Lipid bilayer [15]; in assay [1]; in assay [2]; in the assay on Lipid bilayer [4]; in the assay with Lipid bilayer [5]) was Active. Besides, the outcome in the assay on Lipid bilayer [16], in the assay with Lipid bilayer [17] and in the assay on Lipid bilayer [13] was Active. In addition, the Activity worked out at 130 molar ratio with Lipid bilayer [6], 28 molar ratio with Lipid bilayer [7] and 36 molar ratio with Lipid bilayer [9]. The compound further displayed a Kb with Lipid bilayer [11] of 191 M⁻¹.
